Test results taken from US11530244B2, “Cyclic polypeptides for PCSK9 inhibition” (priority 2018, dated 2022).
Starred links: 1 amine or outer side, 2 acyl side, 3 side chain; linkers in the order of their positions; H or OH if unused. Positions of bridges follow the written chain, without caps; N, C: chain ends. Non-standard residues stand in square brackets, D forms with d. Residues, ends and D or L forms follow the SMILES beside them. Groups on a side chain read outwards from the residue. *: point of attachment. 2Furoyl(5-aminomethyl) = O=C(c1ccc(CN[*:1])o1)[*:2]; NMeTrp(1-Me) = CN[C@@H](Cc1cn(C)c2ccccc12)C(=O)O; X58 = O=C([C@@H]1[C@H](OCC=[*:3])CCN1[*:1])[*:2]; Phe(4-COOH) = N[C@@H](Cc1ccc(C(=O)O)cc1)C(=O)O; Trp(5-F) = N[C@@H](Cc1c[nH]c2ccc(F)cc12)C(=O)O; Phe(4-CH2NH2) = NCc1ccc(C[C@H](N)C(=O)O)cc1; NMeW = CN[C@@H](Cc1c[nH]c2ccccc12)C(=O)O; Pro(cis-4-F) = O=C(O)[C@@H]1C[C@H](F)CN1; X12 = O=C([C@H](CCCCC=[*:3])N[*:1])[*:2]; X4 = O=C(CCSCc1cccc(CSCCN[*:1])c1)[*:2]; γGlu = O=C(O)[C@H](CCC(=O)[*:2])N[*:1]; mXylylene = c1cc(C[*:1])cc(C[*:2])c1; AEF = NCCOc1ccc(C[C@H](N)C(=O)O)cc1; NMeY = CN[C@@H](Cc1ccc(O)cc1)C(=O)O; Adipoyl = O=C(CCCCC(=O)[*:2])[*:1]; X54 = c1cc2ccc(C[*:2])cc2cc1C[*:1]; Palmitoyl = CCCCCCCCCCCCCCCC(=O)*; NMeD = CN[C@@H](CC(=O)O)C(=O)O; aThr = C[C@H](O)[C@H](N)C(=O)O; Suc = O=C(CCC(=O)[*:2])[*:1]; αMeP = C[C@@]1(C(=O)O)CCCN1; Dap = NC[C@H](N)C(=O)O; X2 = O=C(C[*:2])[*:1]; GABA = NCCCC(=O)O; Mpa = O=C(O)CCS; Sar = CNCC(=O)O

The compounds below were run against human PCSK9 / human LDLR EGFa domain interaction (Homo sapiens (Human), UniProt Q8NBP7) (assay: TR-FRET assay of inhibition of the PCSK9-LDLR protein-protein interaction). Settings: TR-FRET, 20 nM human PCSK9, 20 nM human LDLR EGFa domain, 2 hours room temperature; read-out: IC50.
human PCSK9 / human LDLR EGFa domain interaction, sequence (Q8NBP7 153-692): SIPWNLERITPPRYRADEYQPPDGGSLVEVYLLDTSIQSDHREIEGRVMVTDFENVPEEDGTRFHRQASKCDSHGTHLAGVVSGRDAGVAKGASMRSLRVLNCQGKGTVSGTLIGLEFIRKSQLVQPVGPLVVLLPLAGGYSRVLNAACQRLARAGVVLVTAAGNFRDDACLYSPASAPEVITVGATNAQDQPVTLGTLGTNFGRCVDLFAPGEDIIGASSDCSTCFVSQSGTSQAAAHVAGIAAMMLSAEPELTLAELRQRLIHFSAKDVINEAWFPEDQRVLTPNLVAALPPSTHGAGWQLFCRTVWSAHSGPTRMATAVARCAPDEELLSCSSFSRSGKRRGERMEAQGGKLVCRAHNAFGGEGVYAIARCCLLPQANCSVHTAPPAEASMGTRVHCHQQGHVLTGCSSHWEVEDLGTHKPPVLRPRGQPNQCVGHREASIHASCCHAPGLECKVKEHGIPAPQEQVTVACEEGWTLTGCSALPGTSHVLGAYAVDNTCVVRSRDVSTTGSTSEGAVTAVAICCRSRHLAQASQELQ
human PCSK9 / human LDLR EGFa domain interaction, sequence (Q8NBP7 31-152 partner): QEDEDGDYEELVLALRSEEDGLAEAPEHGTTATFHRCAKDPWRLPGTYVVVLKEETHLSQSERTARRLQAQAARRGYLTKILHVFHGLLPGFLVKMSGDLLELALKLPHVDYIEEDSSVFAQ
Assay type: binding
Experimental: A time-resolved fluorescence resonance energy (TR-FRET) assay was used to measure inhibition of the PCSK9-LDLR protein-protein interaction. Briefly, 20 nM avitag-biotinylated human PCSK9 was incubated with 20 nM his-tagged human LDLR EGFa domain in the presence of 5 nM LANCE Ulight Streptavidin (Perkin Elmer) and 5 nM europium-Anti-6×His (Perkin Elmer) for 2 hours covered at room temperature in buffer containing 50 mM HEPES, 150 mM NaCl, 5 mM CaCl2), 0.01% BSA and 0.01% Surfactant P20. Compounds were tested in dose-response and concentrations giving half-maximal inhibition calculated using a 4-parameter fit equation.
Compound `CCCCCCCCCCCCCCCC(=O)N[C@@H](CCC(=O)N[C@@H](CCC(=O)NCCCC[C@@H]1NC(=O)CCSCc2cccc(c2)CSC[C@@H](C(N)=O)NC(=O)[C@]2(C)CCCN2C(=O)[C@H](Cc2ccc(O)cc2)NC(=O)[C@H](Cc2c[nH]cn2)NC(=O)[C@H](CC(=O)O)NC(=O)[C@H](Cc2c[nH]c3ccc(F)cc23)NC(=O)[C@H](Cc2c[nH]c3ccc(F)cc23)NC(=O)CNC1=O)C(=O)O)C(=O)O` [Compound 283] ([Mpa]K([γGlu-γGlu-Palmitoyl])G[Trp(5-F)][Trp(5-F)]DHY[αMeP]C-NH2; linker 1-10 via mXylylene) has an IC50 of 21 to 50 µM. Work on `NCCCC[C@@H]1NC(=O)CCSCc2cccc(c2)CSC[C@@H](C(N)=O)NC(=O)[C@@H]2CCCN2C(=O)[C@H](Cc2ccc(O)cc2)NC(=O)[C@@H](Cc2cnc[nH]2)NC(=O)[C@H](CC(=O)O)NC(=O)[C@H](Cc2c[nH]c3ccc(F)cc23)NC(=O)[C@H](Cc2c[nH]c3ccc(F)cc23)NC(=O)CNC1=O` [Compound 163] ([Mpa]KG[Trp(5-F)][Trp(5-F)]D[dH]YPC-NH2; linker 1-10 via mXylylene) yielded an IC50 of 21 to 50 µM. `NCCCC[C@@H]1NC(=O)CCSCc2cccc(c2)CSC[C@@H](C(N)=O)NC(=O)[C@@H]2CCCN2C(=O)[C@@H](Cc2ccc(O)cc2)NC(=O)[C@H](Cc2cnc[nH]2)NC(=O)[C@H](CC(=O)O)NC(=O)[C@H](Cc2c[nH]c3ccc(F)cc23)NC(=O)[C@H](Cc2c[nH]c3ccc(F)cc23)NC(=O)CNC1=O` [Compound 164] ([Mpa]KG[Trp(5-F)][Trp(5-F)]DH[dY]PC-NH2; linker 1-10 via mXylylene) was tested, and the IC50 was 21 to 50 µM. Compound `NCCCC[C@@H]1NC(=O)CCSCc2ccc3ccc(cc3c2)CSC[C@@H](C(N)=O)NC(=O)[C@@H]2CCCN2C(=O)[C@H](Cc2ccc(O)cc2)NC(=O)[C@H](Cc2c[nH]cn2)NC(=O)[C@H](CC(=O)O)NC(=O)[C@H](Cc2c[nH]c3ccc(F)cc23)NC(=O)[C@H](Cc2c[nH]c3ccc(F)cc23)NC(=O)CNC1=O` [Compound 206] ([Mpa]KG[Trp(5-F)][Trp(5-F)]DHYPC-NH2; linker 1-10 via X54) has an IC50 of 21 to 50 µM. Work on `C[C@@H]1NC(=O)CCSCc2cccc(c2)CSC[C@@H](C(N)=O)NC(=O)[C@@H]2CCCN2C(=O)[C@H](Cc2ccc(O)cc2)N(C)C(=O)[C@H](Cc2c[nH]cn2)NC(=O)[C@H](CC(=O)O)N(C)C(=O)[C@H](Cc2cn(C)c3ccccc23)N(C)C(=O)[C@H](Cc2c[nH]c3ccccc23)N(C)C(=O)CN(C)C1=O` [Compound 259] ([Mpa]A[Sar][NMeW][NMeTrp(1-Me)][NMeD]H[NMeY]PC-NH2; linker 1-10 via mXylylene) yielded an IC50 of 1 to 12.1 µM.

The compounds below were run against PCSK9 (Homo sapiens (Human), UniProt Q8NBP7) (assay: PCSK9 Alexa FRET Standard assay (displacement of AlexaFluor647 tagged cyclic peptide Reagent A)). Settings: PCSK9 Alexa FRET Standard assay, 0.5 nM PCSK9, 20 nM AF cyclic peptide Reagent A; read-out: IC50.
PCSK9, sequence (Q8NBP7 153-692): as the sequence (Q8NBP7 153-692) above
Assay type: binding
How it was run: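 TR-FRET displacement: 0.5 nM biotinylated PCSK9 with 1.25 nM Strep-Eu and 20 nM AlexaFluor-tagged cyclic peptide (final) in 50 mM HEPES pH 7.4, 0.15 M NaCl, 5 mM CaCl2, 0.01% BSA, 0.01% P20, ≥2 h at room temperature. IC50 from sigmoidal fit, converted to Ki via peptide KD; falling Eu counts flagged false positives.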
With `C[C@H]1NC(=O)[C@H](CCCCN)NC(=O)CCSCc2cccc(c2)CSC[C@@H](C(N)=O)NC(=O)[C@]2(C)CCCN2C(=O)[C@H](Cc2ccc(O)cc2)NC(=O)C2=CC=C(CNC(=O)[C@H](Cc3c[nH]c4ccc(F)cc34)NC(=O)[C@H](Cc3c[nH]c4ccc(F)cc34)NC1=O)O2` [Compound 429] ([Mpa]K[dA][Trp(5-F)][Trp(5-F)][2Furoyl(5-aminomethyl)]Y[αMeP]C-NH2; linker 1-9 via mXylylene) the IC50 was 0.1 to 1 µM. In the case of `CC(=O)N[C@H]1CCCC/C=C/CO[C@H]2C[C@@H](C(N)=O)N(C2)C(=O)[C@H](Cc2ccc(O)cc2)NC(=O)[C@H](Cc2cnc[nH]2)NC(=O)[C@H](CC(=O)O)NC(=O)[C@H](Cc2c[nH]c3ccc(F)cc23)NC(=O)[C@H](Cc2c[nH]c3ccc(F)cc23)NC(=O)CNC(=O)[C@H](CCCCN)NC1=O` [Compound 431], the IC50 is reported as 0.00011 to 0.1 µM. For `CC(=O)N[C@H]1CCCC/C=C/CO[C@@H]2CCN(C(=O)[C@H](Cc3ccc(O)cc3)NC(=O)[C@H](Cc3cnc[nH]3)NC(=O)[C@H](CC(=O)O)NC(=O)[C@H](Cc3c[nH]c4ccc(F)cc34)NC(=O)[C@H](Cc3c[nH]c4ccc(F)cc34)NC(=O)CNC(=O)[C@H](CCCCN)NC1=O)[C@@H]2C(N)=O` [Compound 469] (Ac-[X12]KG[Trp(5-F)][Trp(5-F)]DHY[X58]-NH2; staple (E) 1-9), the IC50 was 21 to 50 µM. For `CO[C@H](C)[C@@H]1NC(=O)CCSCc2cccc(c2)CSC[C@@H](C(N)=O)NC(=O)[C@]2(C)CCCN2C(=O)[C@H](Cc2ccc(O)cc2)NC(=O)[C@H](Cc2cnc[nH]2)NC(=O)[C@H](CC(=O)O)NC(=O)[C@H](Cc2c[nH]c3ccc(F)cc23)NC(=O)[C@H](Cc2c[nH]c3ccc(F)cc23)NC(=O)CNC1=O` [Compound 375] ([Mpa]T(Me)G[Trp(5-F)][Trp(5-F)]DHY[αMeP]C-NH2; linker 1-10 via mXylylene), the IC50 was 21 to 50 µM. With `COc1ccc(C[C@@H]2NC(=O)[C@H]([C@@H](C)O)NC(=O)[C@@H]3C[C@H](F)CN3C(=O)[C@H](Cc3c[nH]c4ccc(F)cc34)NC(=O)[C@H](Cc3c[nH]c4ccc(F)cc34)NC(=O)[C@@H](C)NC(=O)[C@H](CCCCN)NC(=O)CCC(=O)NCCOc3ccc(cc3)C[C@@H](C(N)=O)NC(=O)[C@]3(C)CCCN3C2=O)cc1` [Compound 098] (K[dA][Trp(5-F)][Trp(5-F)][Pro(cis-4-F)]TY(Me)[αMeP][AEF]-NH2; linker N-9 via Suc) the IC50 was 21 to 50 µM. In the case of `NC(=O)[C@@H]1Cc2ccc(cc2)CNC(=O)CCCCC(=O)NCC(=O)N[C@@H](Cc2c[nH]c3ccc(F)cc23)C(=O)N[C@@H](Cc2c[nH]c3ccc(F)cc23)C(=O)N[C@@H](CC(=O)O)C(=O)N[C@@H](Cc2cnc[nH]2)C(=O)N[C@@H](Cc2ccc(O)cc2)C(=O)N1` [Compound 438] (G[Trp(5-F)][Trp(5-F)]DHY[Phe(4-CH2NH2)]-NH2; linker N-7 via Adipoyl), the IC50 is reported as 21 to 50 µM. With `COc1ccc(C[C@@H]2NC(=O)[C@H]([C@@H](C)O)NC(=O)[C@@H]3C[C@H](F)CN3C(=O)[C@H](Cc3c[nH]c4ccc(F)cc34)NC(=O)[C@H](Cc3c[nH]c4ccc(F)cc34)NC(=O)[C@@H](C)NC(=O)[C@H](CCCCN)NC(=O)[C@@H](NC(C)=O)CNC(=O)COc3ccc(cc3)C[C@@H](C(N)=O)NC(=O)[C@]3(C)CCCN3C2=O)cc1` [Compound 094] (Ac-[Dap]K[dA][Trp(5-F)][Trp(5-F)][Pro(cis-4-F)]TY(Me)[αMeP]Y-NH2; linker 1-10 via X2) the IC50 was 21 to 50 µM. With `CO[C@@H](C)[C@@H]1NC(=O)[C@@H]2CCCN2C(=O)[C@H](Cc2c[nH]c3ccc(F)cc23)NC(=O)[C@H](Cc2c[nH]c3ccc(F)cc23)NC(=O)[C@@H](C)NC(=O)[C@H](CCCCN)NC(=O)CCSCc2cccc(c2)CSCCNC(=O)[C@]2(C)CCCN2C(=O)[C@H](Cc2ccc(O)cc2)NC1=O` [Compound 071] (cyclo(K[dA][Trp(5-F)][Trp(5-F)]P[aThr](Me)Y[αMeP][X4])) the IC50 was 21 to 50 µM. `CO[C@@H](C)[C@@H]1NC(=O)[C@@H]2CCCN2C(=O)[C@H](Cc2c[nH]c3ccc(F)cc23)NC(=O)[C@H](Cc2c[nH]c3ccc(F)cc23)NC(=O)CNC(=O)[C@H](CCCCN)NC(=O)CCSCc2cccc(c2)CSCCNC(=O)[C@]2(C)CCCN2C(=O)[C@H](Cc2ccc(O)cc2)NC1=O` [Compound 070] (cyclo(G[Trp(5-F)][Trp(5-F)]P[aThr](Me)Y[αMeP][X4]K)) was tested, and the IC50 was 21 to 50 µM. Compound `COc1ccc(C[C@@H]2NC(=O)[C@H](Cc3cnc[nH]3)NC(=O)[C@H](CC(=O)O)NC(=O)[C@H](Cc3c[nH]c4ccc(F)cc34)NC(=O)[C@H](Cc3c[nH]c4ccc(F)cc34)NC(=O)[C@@H](C)NC(=O)CCCNC(=O)c3ccc(cc3)C[C@@H](C(N)=O)NC(=O)[C@]3(C)CCCN3C2=O)cc1` [Compound 432] ([GABA][dA][Trp(5-F)][Trp(5-F)]DHY(Me)[αMeP][Phe(4-COOH)]-NH2; lactam N-9) has an IC50 of 1 to 12.1 µM.
